Consider 4 compounds from ChEMBL document CHEMBL3638458, “Amine substituted methanesulfonamide derivatives as vanilloid receptor ligands” (2014).

The target in this experiment is Transient receptor potential cation channel subfamily V member 1 (Homo sapiens, UniProt Q8NER1). Description: FLIPR Assay: The FLIPR protocol consists of 2 substance additions. First the compounds to be tested (10 μM) are pipetted onto the cells and the Ca2+ influx is compared with the control (capsaicin 10 μM). This provides the result in % activation based on the Ca2+ signal after the addition of 10 μM of capsaicin (CP). After 5 minutes incubation, 100 nM of capsaicin are applied and the Ca2+ influx is also determined. Desensitising agonists and antagonists lead to suppression of the Ca2+ influx. The % inhibition is calculated compared to the maximum achievable inhibition with 10 μM of capsazepine. Starting from the percentage displacement caused by different concentrations of the compounds to be tested of general formula I, IC50 inhibitory concentrations which cause a 50-percent displacement of capsaicin were calculated. K1 values for the test substances were obtained by conversion by means of the Cheng-Prusoff equation (Cheng, Prusoff; Biochem. Pharmacol. 22, 3099-3108, 1973).
Sequence of Transient receptor potential cation channel subfamily V member 1 (Q8NER1 whole entry): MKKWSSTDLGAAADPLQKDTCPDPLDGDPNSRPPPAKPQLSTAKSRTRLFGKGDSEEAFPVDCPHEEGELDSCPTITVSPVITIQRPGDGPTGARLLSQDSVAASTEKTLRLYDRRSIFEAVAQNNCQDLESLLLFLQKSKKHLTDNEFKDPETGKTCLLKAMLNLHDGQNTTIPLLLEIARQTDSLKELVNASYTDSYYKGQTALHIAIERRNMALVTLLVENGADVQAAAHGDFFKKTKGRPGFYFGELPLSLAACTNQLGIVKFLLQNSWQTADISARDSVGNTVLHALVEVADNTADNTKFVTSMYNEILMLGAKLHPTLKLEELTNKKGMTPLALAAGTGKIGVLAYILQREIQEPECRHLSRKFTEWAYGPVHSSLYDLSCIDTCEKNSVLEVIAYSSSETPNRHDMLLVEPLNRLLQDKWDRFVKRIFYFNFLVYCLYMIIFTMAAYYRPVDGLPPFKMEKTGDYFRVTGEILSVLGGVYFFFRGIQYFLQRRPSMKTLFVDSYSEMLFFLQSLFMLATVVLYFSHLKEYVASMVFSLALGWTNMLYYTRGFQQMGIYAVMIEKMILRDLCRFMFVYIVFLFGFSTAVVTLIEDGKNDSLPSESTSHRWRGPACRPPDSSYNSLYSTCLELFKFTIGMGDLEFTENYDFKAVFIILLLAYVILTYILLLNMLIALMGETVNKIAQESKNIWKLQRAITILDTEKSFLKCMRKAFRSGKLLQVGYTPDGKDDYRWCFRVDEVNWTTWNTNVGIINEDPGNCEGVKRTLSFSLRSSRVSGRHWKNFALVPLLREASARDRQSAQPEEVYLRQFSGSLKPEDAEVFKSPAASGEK
With `CC1CCN(c2nc(C(F)(F)F)ccc2CNC(=O)C(C)c2cccc(CNS(C)(=O)=O)c2)CC1` (centres undefined), the Ki is 0.102 µM.
As for `CC(C(=O)NCc1ccc(C(F)(F)F)nc1N1CCCC1)c1ccc(CNS(C)(=O)=O)cc1` (centres undefined), the figure is 0.02 µM; as for `Cc1cc(C(C)C(=O)NCc2ccc(C(F)(F)F)nc2N2CCCC2)ccc1CNS(C)(=O)=O` (centres undefined), 0.05 µM; as for `CCS(=O)(=O)NCc1ccc(C(C)C(=O)NCc2ccc(C(F)(F)F)nc2N2CCC(C)CC2)cc1F` (centres undefined), 0.004 µM.

As a reminder, the Ki is the dissociation constant of the complex between target and ligand, obtained from inhibition or displacement.
